Some results are limits rather than exact numbers.

These results are taken from US20260069606A1, “Oxidative Stress and Diabetes Treatment with Cobinamide” (The Regents of the University of California, priority 2022, published 2026).

The subject of one series is hearts of diabetic mice. The series can be described thus: Lipid and protein oxidation and DNA damage in hearts of diabetic mice. Type of series: in vivo. As for the experimental part:
FIGS. 4A-4K. Cobinamide Rescues Flies from Paraquat Poisoning and Prevents Abnormal Lipid and Protein Oxidation, DNA Damage, and Fibrosis in the Hearts of Diabetic Mice. FIG. 4A. At time zero, 10 fruit flies (D. melanogaster) were transferred to vials with food to which either phosphate-buffered saline (PBS), 0.8 mM of the indicated drugs, 20 mM paraquat (PQ), or 20 mM paraquat with 0.8 mM of the indicated drugs had been added. The number of live flies was counted each day for 7 d. The experiment was repeated seven times, for a total of 70 flies per condition. The percent surviving flies was calculated; error bars represent standard deviations and are shown in one direction only for sake of clarity. FIGS. 4B-4K. […] The amount of 8-isoprostane (FIG. 4B) was measured by ELISA, protein oxidation (FIGS. 4C-4D) was assessed by immunoblotting, and nitrotyrosine content (FIGS. 4E-4F) was assessed by immunohistochemistry. DNA damage was assessed by 8-OH-deoxyguanosine staining (FIGS. 4G-4H) and a long amplicon qPCR-based assay (FIG. 4I). Cardiac fibrosis (FIGS. 4J-4K) was assessed by Mallory trichrome staining, which stains collagen blue. […] For Panels C, D, and I, frozen heart samples were selected randomly from each of the four groups and were analyzed. For Panel D, blots were analyzed by densitometric scanning using Li-Cor Odyssey software, with the density of each lane normalized to the actin band. […]

The nature of series [1]: Reaction with superoxide, spin trap DMPO / EPR. Type of series: biochemical. On the procedure: The reaction of cobinamide with O2·^− was studied in two different systems, generating O2·^− using a hypoxanthine-xanthine oxidase system.
The second system contained 1 mM hypoxanthine, 0.04 U xanthine oxidase, and 0.26 M DMPO in phosphate-buffered saline, pH 7.4 (PBS). Samples were transferred to a capillary tube, and introduced into the EPR cavity of a Magnettech MiniScope MS5000. DMPO-OH signals arising from the DMPO-OOH spin adduct were measured at 37° C. for 5 min. The area under the DMPO-OOH peak was calculated using Origin 2022b software. To avoid variability across runs, signal amplitudes were normalized to the intensity of simultaneously recorded Mn reference signals originating from ZnS:Mn^2+ fixed within the EPR cavity.
In both systems, the experiments were conducted in the absence and presence of the indicated concentrations of Cbi(III) or Chi(II) 65.
The reaction of Chi(III) with O2·^− was also measured using the spin-trap DMPO, which yields a distinctive electron paramagnetic resonance (EPR) spectrum on reacting with O2·^−. Sub-micromolar concentrations of cobinamide reduced the EPR signal in a dose-dependent fashion, yielding an apparent rate constant of 7.5×10^7 M^−1 s^−1 for the reaction of Chi(III) with O2·^− (FIG. 1B).

For series [2] the following is noted: second order; literature values; cited from earlier work.
For series [3] the following is noted: mice, same amount of cobinamide for six months; cited from earlier work.
A short description of series [4]: Tolerability in non-diabetic and streptozotocin-diabetic mice (weight, liver and renal function). The class given is in vivo. An excerpt:
The water was replenished twice a week.
Over the three-month treatment period, the non-diabetic mice gained an average of 4.1±0.8 g. while the diabetic mice lost an average of 0.3 g, with wide variation in weight change among the latter mice.

A further series deals with D. melanogaster. Kind of series: Survival of fruit flies during paraquat poisoning. The class given is in vivo. The conditions noted are these: 20 mM paraquat with 0.8 mM drug in food, over 7 d.

Procedure for D. melanogaster: The number of live flies was counted each day for 7 d. The experiment was repeated seven times, for a total of 70 flies per condition. The percent surviving flies was calculated; error bars represent standard deviations and are shown in one direction only for sake of clarity. […] Chi, cobinamide in Panel A and histidyl-cobinamide in Panels B-K; Imp, imisopasem; MnTP, MnTBAP; CbL, cobalamin; DNPH, 2,4-dinitrophenylhydrazine; ND, non-diabetic; D, diabetic; Veh, vehicle.
To test cobinamide in a whole animal, D. melanogaster was selected for initial studies, and oxidative stressed was increased in the files by administering paraquat in their food. Cobinamide was again compared to imisopasem, MnTBAP, and hydroxocobalamin, all administered in food.

Consider `C/C1=C2/[N-][C@H]([C@H](CC(N)=O)[C@@]2(C)CCC(=O)NC[C@@H](C)O)[C@]2(C)N=C(/C(C)=C3N=C(/C=C4N=C1[C@@H](CCC(N)=O)C\4(C)C)[C@@H](CCC(N)=O)[C@]\3(C)CC(N)=O)[C@@H](CCC(N)=O)[C@]2(C)CC(N)=O.[Co+3]` [cobinamide, aquohydroxo-cobinamide], for which the “All markers of oxidative stress and DNA damage in hearts of diabetic mice” value in the series on hearts of diabetic mice (8-isoprostane, protein carbonylation, nitrotyrosine, 8-OH-deoxyguanosine, long-amplicon PCR, three months histidyl-cobinamide in drinking water) was “significantly reduced all markers of oxidative stress and DNA damage to values similar to those found in the non-diabetic mice”. Also, the “Tyrosine nitration in hearts of diabetic mice” value in the series on hearts of diabetic mice (nitrotyrosine immunohistochemistry) was “reduced”. For the same compound, the “Apparent rate constant, reaction with O2·^−” value in series [1] came out at 7.5e+07 M⁻¹ s⁻¹. For the same compound, in series [2], the “Rate constant, reaction with nitric oxide (·NO), published” value is given as 2.4 × 10^8 (51) M^−1 s^−1. In addition, the Hematological parameters entry in series [3] is recorded as “did not affect hematological parameters”. Moreover, in series [4] (mouse, in vivo), the “Average weight gain of cobinamide-treated diabetic mice” value is listed as 0.63 g; the Effect on weight result was “did not significantly affect weight”; the “Liver function and renal function tests” value is reported as “no effect”. For the same compound, the Tolerability entry in series [4] (non-diabetic and diabetic mice, three months in drinking water) is “well tolerated”. Also, the “Mortality of paraquat-exposed flies” value in the series on D. melanogaster is reported as less than 30%.
